Source: patent US12168676B2, “Microbially derived peptides and proteins for immunotherapy” (Genevive, Inc., priority 2019, dated 2024)
Entries after “also recorded” stand apart in the source; their conditions may differ.

Columns and labels:
[1] = system: CT26 tumor-bearing Balb/c mice; assay: Tumor infiltrating lymphocyte composition/activation in CT26 tumor-bearing Balb/c mice (Examples 3 and 9); type: in vivo, mouse
Description: In vivo studies were performed to study the effects of SG-3-0020 administration on, e.g., immune cell activation and tumor size and to test different routes of administration of SG-3-0020 in CT26 tumor-bearing Balb/c mice and its effects on immune modulation. This mouse model is one of the most widely used mouse models for preclinical testing of new immunotherapeutic drugs (Grosso and Jure-Kunkel, 2013, Cancer Immun, 13:5).
Mice were dosed i.v., i.p., p.t. with SG-3-0020 or PBS. For comparison mice were dosed with CD80-Fc or IgG1-Fc i.v. On Day 7, tumor samples were analyzed for tumor infiltrating lymphocyte (TIL) composition/activation by flow cytometry. The protocol used in this experiment is illustrated in FIG. 7A.
BALB/c male mice (n=5-6/group, 8 weeks of age) were inoculated s.c. with CT26 colon carcinoma cells. SG-B was administered in PBS peritumorally daily at 2.5 mg/kg. Control mice were injected with the corresponding volume of PBS. At Day 13 (AH1 staining)) or Day 7 (Ki67, CD25, OX40 staining) excised tumors were washed with PBS, dissected into smaller fragments using scalpels, and further dissociated into single cell suspensions using the Miltenyi Tumor Dissociation Kit and the GentleMACS Octo dissociator. The digested tumors were filtered through pre-separation filters, washed with PBS, and then used for flow cytometry-based analysis. T lymphocytes were gated as CD4^+ or CD8^+ and then analyzed for surface marker expression by FlowJo 10.5.3. p values calculated by Mann-Whitney test.

[2] = system: T cells isolated from mouse spleens; assay: Mouse T cell activation, anti-CD3 coated plates (Example 4); type: cell-based; conditions: 10 mcM peptide, anti-CD3 0.1 mcg/mL, 48 hours
Description: 96-well culture plates were pre-coated with anti-CD3 (0.1 mcg/mL) in 200 mcL. The plates were incubated overnight at 4° C. The plates were washed with PBS three times before plating the cells (Balb/c splenocytes for T-cell isolation by EasySep™ #19851). The cells were plated at 100-200K/well in final volume of 200 mcL of AIM-V. Peptides (10mcM) or 2 mcg/mL anti-CD28 were added to the cells. The cells were incubated for 48 hours at 37° C.
The incubated cells were used for flow cytometry analysis. SG-3-0020 increased expression of T cell activation markers and proliferation of CD4 and CD8 T cells isolated from mouse spleens (FIG. 11A).
The supernatants were used for MSD analysis. SG-3-0020 increased secretion of effector cytokines by T cells isolated from mouse spleens. (FIG. 11B)

human T cells [3] = assay: Activation markers and cytokine secretion with or without anti-CD3, or with CD3/CD28 activator, T cells (Example 5); type: cell-based
Description: (§1) Activation marker expression on T cells and PBMCs in the presence of peptides (10mcM) or anti-CD28 (10 mcg/mL) was determined after 48 hours of incubation, with or without 0.1 mcg/mL anti-CD3. The data were analyzed by flow cytometry (FIG. 13A-D).
Cytokine secretion on T cells in the presence of peptides (10mcM) or anti-CD28 (10 mcg/mL) after 48 h of incubation, with or without 0.1 mcg/mL anti-CD3, was determined. The data were analyzed by MSD (FIG. 14).
Human T cells were activated with ImmunoCult™ Human CD3/CD28 T Cell Activator in the presence of peptides (10mcM) and cytokine secretion was analyzed after 48 hours of incubation by MSD. […] Activation with anti-CD3 on both isolated T cells and PBMCs was required for SG-3-0020-mediated effects.

[4] = system: Splenocytes isolated from naive male C57BL/6 mice; assay: Stimulation of murine naïve splenocytes (Example 1); type: cell-based, mouse; conditions: 10 μM peptide
Description: This example describes an initial screening assay to identify Bifidobacterium-derived peptides which can activate effector T cells, specifically, CD4 effector T cells which are characterized in part by a CD4^+ CD25^+ FoxP3^− phenotype and CD8 effector cells which are characterized in part by a CD8^+ CD25^+ FoxP3^− phenotype. Splenocytes isolated from naive male C57BL/6 mice (Taconic, 8-14 weeks of age) were resuspended in complete RPMI (RPMI containing 10% FBS plus 1% penicillin/streptomycin) to a final number of 8×10^5 cells/well in a flat-bottom 96-well plate. Cells were then stimulated with 0.05 μg/ml anti-CD3 antibody in the presence of: each peptide (10 μM in water) or ovalbumin peptide amino acids 323-339 (10 μM in water), water (Th0 min H2O), anti-CD3 antibody alone (Th0 min), or with 1 μg/ml anti-CD3, plus IL-12 (10 ng/ml), plus 5 μg/ml anti-IL-4 antibody (positive control to generate Th1 cells). Cells were incubated at 37° C., 5% CO2 for 48 h. See. FIG. 2A, FIG. 2B, and FIG. 2C.
Levels of activated (Tact) CD4 (FIG. 2A) and CD8 (FIG. 2B) T cells, defined by absence of FoxP3 and high CD25 expression, were determined by multicolor flow cytometry. Levels of T cells were then normalized to levels of the T cells when the splenocytes were treated with the OV323-339 negative control peptide. See Levels of IL-2 (FIG. 2C) and IL-17 (FIG. 2D) in culture supernatants were quantified by Luminex analysis. Levels of Granzyme B expression on gated CD8 FoxP3^− T cells were analyzed by flow cytometry. Bars represent mean±SD. (vs. Th0+H2O) by Kruskall-Wallis with uncorrected Dunn's test.
A dose response study was also performed using the above methods wherein naïve mouse splenocytes were treated with increasing doses of SG-3-0020 (1 μM, 5 μM, or 10 μM). Flow cytometry analysis was done to measure frequency of effector CD8 T cells (CD8^+, CD25^+, FoxP3), granzyme B expression on the effector CD8 T cells, and IL-2 expression.

PBMCs = assay: Activation marker expression with or without anti-CD3, PBMCs (Example 5); type: cell-based, human; conditions: 10 mcM, with or without 0.1 mcg/mL anti-CD3, 48 hours
Description: as §1

human T cells [5] = assay: Human T cell activation assay, anti-CD3 stimulated purified T cells (Example 2); type: cell-based
Description: PBMCs were obtained from 5 individual human donors. […] Furthermore, incubation of the T cells with SG-3-0020 increased secretion of IL-2 and IFN-γ (FIG. 6B). […] Such activation may enhance immune action against a tumor in vivo with or without a co-therapy.

human T cells [6] = assay: Phage binding to T cells, titers of eluted phages (Example 7)
Description: The binding of SG-3-0020 phages to target cells (naïve T-cell, activated T-cell) was tested.
Biotinylated peptide stock (1 mM) was diluted to 1 uM (×1,000-fold) with 1×PBS+2% BSA. 150 mcL of phages (multivalent display) were mixed with 70 mcL of 1×PBS+2% BSA. The solution was rotated at room temperature for 1 hour.
The cells, either naïve T-cells (about 13×10^6 cells) or activated T-cells (about 16×10^6 cells) were thawed. The cells were then centrifuged at 1,500 for 5 min at 4° C., and the supernatant was aspirated. The cell pellets were washed with 5 mL of 1×PBS+2% BSA by pipetting. This was repeated such that the pellets were centrifuged and washed a total of 3 times.
The cell pellets were resuspended with 1050 mcL of 1×PBS+2% BSA, and 100 mcL of phage (M13 bacteriophage G8P capsid antibody-FITC from antibodies-online Inc (Cat #: ABIN 125966)) were added into a well of 96-well plates (phage binding). 150 mcL of diluted biotinylated peptide were added into a well of 96-well plates (biotinylated peptide binding). 100 mcL of resuspended cells were added into the wells for phage binding and 50 mcL of resuspended cells were added into the wells for biotinylated peptide binding.
The cells were put on the rocker and incubated at 4° C. for 2 hours for binding and then centrifuged at 1,500 for 5 min at 4° C. The supernatant was discarded. […]

activated human T cell = assay: NanoString nCounter Human PanCancer Immune profiling of activated T cells (Example 6); type: cell-based; conditions: RNA, T cells of 5 donors, 10 μM vs vehicle
Description: T cells were isolated from 5 individual blood donors and activated as described previously. RNA expression levels were determined by the NanoString nCounter Human PanCancer Immune profiling.

CT26 mouse model = assay: CT26 mouse model, tumor volume, monotherapy; type: in vivo; conditions: preliminary results, data not shown
[7] = peri-tumoral injections twice daily (b.i.d.)
[8] = 0.05 μg/ml anti-CD3, 48 h, flow cytometry
[9] = anti-CD3 stimulated purified T cells
[10] = anti-CD3 stimulated purified T cells, 5 donors
[11] = vs activated T cells without SG-3-0020, data not shown

SG-3-0020: Bifidobacterium breve-derived peptide, SEQ ID NO:1 MLSTKKTKTHDHYPCGRMRDPGWHDWRACLTHQGIEEDEWPV, chemically synthesized for the Examples (Bifidobacterium breve)
required: dependence of SG-3-0020-mediated effects on activation with anti-CD3, isolated T cells (human T cells [3]; 10 mcM, with or without 0.1 mcg/mL anti-CD3, 48 hours) | dependence of SG-3-0020-mediated effects on activation with anti-CD3, PBMCs (PBMCs)
positive effect: Tetramer staining (AH1 epitope) ([1]; Day 13)
increases: activated CD8+ T cell frequency within the TIL compartment ([1]; mouse, in vivo)
increased: secretion of effector cytokines ([2]; MSD) | expression of T cell activation markers ([2]; flow cytometry) | proliferation of CD4 and CD8 T cells ([2]; flow cytometry) | IFN-γ secretion (human T cells [5]; [9]) | IL-2 secretion (human T cells [5]; [9]) | PD-1 expression on CD4+ cells (human T cells [5]; [10]) | PD-1 expression on CD8+ cells (human T cells [5]; [10])
increases activity: cytokine secretion in combination with anti-CD28 activation (human T cells [3]; ImmunoCult Human CD3/CD28 T Cell Activator, 10 mcM peptide, 48 hours, MSD)
5/5: cytokine-stimulating activity, donors responding (human T cells [5]; purified T cell system in the presence of anti-CD3 antibody)
facilitate: IL-2 secretion in culture supernatants ([4]; 48 h, Luminex) | IL-17 secretion in culture supernatants ([4]; 48 h, Luminex)
binds: binding to human T cells (human T cells [6]; FIG. 17, phage titer)
more bound: phage titer, binding to the activated T-cells compared to empty phages (human T cells [6]; multivalent display phage, 4° C., 2 hours)
decrease: CD96 expression (activated human T cell) | CXCL10 expression (activated human T cell) | CXCR6 expression (activated human T cell) | GZMK expression (activated human T cell) | IRF1 expression (activated human T cell) | ISG20 expression (activated human T cell) | LY9 expression (activated human T cell) | SLAMF7 expression (activated human T cell) | SMAD3 expression (activated human T cell) | STAT1 expression (activated human T cell) | TCF7 expression (activated human T cell) | tumor volume (CT26 mouse model)
promote induction: Granzyme B expression in CD8 T cells ([4]; 48 h, flow cytometry)
increase: CD8+CD25+ cells in tumor infiltrating lymphocytes ([1]; Day 7, flow cytometry) | CD8+Ki67+ cells in tumor infiltrating lymphocytes ([1]; Day 7, flow cytometry) | CD8+OX40+ cells in tumor infiltrating lymphocytes ([1]; Day 7, flow cytometry) | NK cells in tumor infiltrating lymphocytes ([1]; Day 7, flow cytometry) | NK cell frequency in the TIL compartment [1, 7] | activated CD8+ T cell frequency in the TIL compartment [1, 7] | IL-10 secretion (human T cells [5]; [9]) | TNF-α secretion (human T cells [5]; [9]) | CD4+CD25+ T cells (human T cells [5]; [11]) | CD4+ICOS+ T cells (human T cells [5]; [11]) | CD4+OX40+ T cells (human T cells [5]; [11]) | CD8+ICOS+ T cells (human T cells [5]; [11]) | CD8+OX40+ T cells (human T cells [5]; [11]) | CD8CD25+ T cells (human T cells [5]; [11]) | CTSL expression (activated human T cell) | DUSP6 expression (activated human T cell) | IL-2 expression (activated human T cell) | IL-3 expression (activated human T cell) | IL-9 expression (activated human T cell) | IL-10 expression (activated human T cell) | IL-21 expression (activated human T cell) | IL-24 expression (activated human T cell)
increase; also recorded: enhance: frequency of activated (Tact) CD4 T cells (CD25+/FoxP3-) [4, 8] | frequency of activated (Tact) CD8 T cells (CD25+/FoxP3-) [4, 8]
